According to ChEMBL document CHEMBL6078691, “Modulating Phosphorylation by Proximity-Inducing Modalities for Cancer Therapy” (J Med Chem, 2024):

Key:
[1] = biological target: T1, Epidermal growth factor receptor (Homo sapiens, UniProt P00533); assay: Inhibition of EGFR (unknown origin)
[2] = biological target: Microtubule-associated protein tau (Homo sapiens, UniProt P10636); assay: Inhibition of tau phosphorylation (unknown origin)
[3] = biological target: T1, Epidermal growth factor receptor; assay: Inhibition of EGFR (unknown origin) at 0.5 uM relative to control

Chain of Microtubule-associated protein tau (P10636 whole entry): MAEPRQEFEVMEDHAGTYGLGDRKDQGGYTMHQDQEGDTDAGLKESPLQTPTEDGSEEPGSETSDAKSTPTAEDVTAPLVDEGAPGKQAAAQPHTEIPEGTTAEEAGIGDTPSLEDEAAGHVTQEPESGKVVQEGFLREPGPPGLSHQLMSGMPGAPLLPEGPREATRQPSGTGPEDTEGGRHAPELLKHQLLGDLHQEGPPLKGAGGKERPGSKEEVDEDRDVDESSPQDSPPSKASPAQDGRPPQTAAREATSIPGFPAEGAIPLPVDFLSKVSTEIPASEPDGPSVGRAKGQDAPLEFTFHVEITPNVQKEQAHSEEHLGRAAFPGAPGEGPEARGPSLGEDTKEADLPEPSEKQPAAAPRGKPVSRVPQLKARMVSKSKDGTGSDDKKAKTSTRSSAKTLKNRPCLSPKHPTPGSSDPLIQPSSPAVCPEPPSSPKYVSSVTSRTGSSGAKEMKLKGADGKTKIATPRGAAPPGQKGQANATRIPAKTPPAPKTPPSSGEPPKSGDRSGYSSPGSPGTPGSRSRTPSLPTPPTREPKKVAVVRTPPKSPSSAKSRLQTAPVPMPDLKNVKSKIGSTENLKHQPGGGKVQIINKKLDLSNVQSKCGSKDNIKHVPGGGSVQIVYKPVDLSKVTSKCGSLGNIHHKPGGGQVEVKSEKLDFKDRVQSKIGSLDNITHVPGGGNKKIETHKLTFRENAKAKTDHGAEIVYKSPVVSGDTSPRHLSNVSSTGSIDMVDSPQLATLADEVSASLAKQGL
T1 sequence (P00533 whole entry): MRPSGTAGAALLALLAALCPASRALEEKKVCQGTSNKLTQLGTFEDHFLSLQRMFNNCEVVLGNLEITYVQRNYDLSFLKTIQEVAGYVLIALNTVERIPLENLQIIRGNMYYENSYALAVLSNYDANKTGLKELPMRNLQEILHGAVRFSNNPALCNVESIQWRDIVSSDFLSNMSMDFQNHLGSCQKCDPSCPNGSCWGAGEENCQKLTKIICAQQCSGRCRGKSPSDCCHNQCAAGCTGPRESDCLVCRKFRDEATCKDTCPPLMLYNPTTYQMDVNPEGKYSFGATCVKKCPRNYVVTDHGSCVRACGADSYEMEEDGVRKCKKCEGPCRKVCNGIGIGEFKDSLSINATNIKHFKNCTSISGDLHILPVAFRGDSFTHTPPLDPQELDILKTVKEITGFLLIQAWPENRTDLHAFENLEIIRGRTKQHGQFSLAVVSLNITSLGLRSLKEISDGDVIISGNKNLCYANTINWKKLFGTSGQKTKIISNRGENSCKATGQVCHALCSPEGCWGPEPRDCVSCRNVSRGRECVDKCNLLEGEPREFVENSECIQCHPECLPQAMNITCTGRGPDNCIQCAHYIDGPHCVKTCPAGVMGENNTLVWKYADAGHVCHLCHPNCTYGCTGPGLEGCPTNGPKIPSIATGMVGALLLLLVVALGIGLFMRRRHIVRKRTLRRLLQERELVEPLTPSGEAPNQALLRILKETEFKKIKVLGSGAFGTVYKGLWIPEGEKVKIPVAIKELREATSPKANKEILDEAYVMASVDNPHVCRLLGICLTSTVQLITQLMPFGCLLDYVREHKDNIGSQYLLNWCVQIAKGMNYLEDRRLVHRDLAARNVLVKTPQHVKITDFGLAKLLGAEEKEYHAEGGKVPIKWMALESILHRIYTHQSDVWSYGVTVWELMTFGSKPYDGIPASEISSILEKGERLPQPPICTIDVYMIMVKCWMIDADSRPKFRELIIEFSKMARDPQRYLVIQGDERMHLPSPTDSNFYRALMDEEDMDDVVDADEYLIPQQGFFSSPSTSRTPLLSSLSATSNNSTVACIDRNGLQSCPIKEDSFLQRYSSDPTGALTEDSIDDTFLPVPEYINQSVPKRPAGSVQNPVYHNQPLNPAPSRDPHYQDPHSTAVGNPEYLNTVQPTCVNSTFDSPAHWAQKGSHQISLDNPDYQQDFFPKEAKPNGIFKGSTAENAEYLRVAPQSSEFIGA

Compound | IC50 [2] [nM] | other results
CC[C@H](C(=O)N1CCCC[C@@H]1C(=O)O[C@H](CCc1ccc(OC)c(OC)c1)c1cccc(OCC(=O)NCCC(=O)N2CCN(CCCOc3cc4c(Nc5ccc(F)c(Cl)c5)ncnc4cc3OC)CC2)c1)c1cc(OC)c(OC)c(OC)c1 |  | IC50 [1]: 13 nM
H-YQQYQDATADEQGGSGSKKVAVVRTPPKSPRRRRRRRR-OH | > 20000 | 
CC[C@H](C)[C@H](NC(=O)[C@H](CCSC)NC(=O)[C@H](Cc1c[nH]c2ccccc12)NC(=O)[C@@H](NC(=O)[C@@H](N)CC(=O)O)C(C)C)C(=O)N[C@@H](CC(N)=O)C(=O)N[C@@H](CCCCN)C(=O)N[C@@H](CCCCN)C(=O)N[C@@H](CCCNC(=N)N)C(=O)N[C@@H](CCCCN)C(=O)NCCOCCOCCOCCOCCOCCOCCN[C@@H](CCCNC(=N)N)C(=O)N[C@H](C(=O)N1CCC[C@H]1C(=O)N1CCC[C@H]1C(=O)N[C@@H](CCCCN)C(=O)N[C@@H](CO)C(=O)N1CCC[C@H]1C(=O)N[C@@H](CCCNC(=N)N)C(=O)N[C@@H](CCCNC(=N)N)C(=O)N[C@@H](CCCNC(=N)N)C(=O)N[C@@H](CCCNC(=N)N)C(=O)N[C@@H](CCCNC(=N)N)C(=O)N[C@@H](CCCNC(=N)N)C(=O)N[C@@H](CCCNC(=N)N)C(=O)N[C@@H](CCCNC(=N)N)C(=O)O)[C@@H](C)O | 2000 | 
CC[C@H](C(=O)N1CCCC[C@@H]1C(=O)O[C@H](CCc1ccc(OC)c(OC)c1)c1cccc(OCC(=O)NCCOCCOCCN(C)C/C=C/C(=O)Nc2cc3c(Nc4ccc(F)c(Cl)c4)ncnc3cc2OC)c1)c1cc(OC)c(OC)c(OC)c1 |  | inhibition [3]: 90%
